Data from PMC10882696, “Novel 5-Substituted Oxindole Derivatives as Bruton’s Tyrosine Kinase Inhibitors: Design, Synthesis, Docking, Molecular Dynamics Simulation, and Biological Evaluation” (ACS Omega, 2024).
Entries after “also recorded” stand apart in the source; their conditions may differ.

Columns and labels:
A549 = test: 3 day MTS cytotoxicity assay, A549; assay type: cell-based; conditions: Homo sapiens; A549, ITK/BTK-negative; mean ± SD, n ≥ 6
Procedure: (§1) The cytotoxic activity of all the 10 compounds was tested under in vitro conditions using a 3 day standard 3-(4,5-dimethylthiazol-2yl)-5-(3-carboxymethoxyphenyl)-2-(4-sulfophenyl)-2H-tetrazolium reduction assay in 384-well plates on a robotic high-throughput screening platform (HighResBio, Boston, MA) as described elsewhere.[38] The IC50 values were calculated from the respective dose–response curves of compounds with Dotmatics (San Diego, CA, USA).

HCT116 = test: 3 day MTS cytotoxicity assay, HCT116; assay type: cell-based; conditions: Homo sapiens, HCT-116; HCT116, ITK/BTK-negative; mean ± SD, n ≥ 6
Procedure: as §1

HCT116p53^–/– = test: 3 day MTS cytotoxicity assay, HCT116p53-/-; assay type: cell-based; conditions: ITK/BTK-negative, mean ± SD, n ≥ 6
Procedure: as §1

U2OS = test: 3 day MTS cytotoxicity assay, U2OS; assay type: cell-based; conditions: Homo sapiens, ITK/BTK-negative, mean ± SD, n ≥ 6
Procedure: as §1

JURKAT = test: 3 day MTS cytotoxicity assay, JURKAT; assay type: cell-based; conditions: Homo sapiens, ITK-positive, mean ± SD, n ≥ 6
Procedure: as §1

CCRF-CEM = test: 3 day MTS cytotoxicity assay, CCRF-CEM; assay type: cell-based; conditions: Homo sapiens, ITK-positive, mean ± SD, n ≥ 6
Procedure: as §1

RAMOS = test: 3 day MTS cytotoxicity assay, RAMOS; assay type: cell-based, human; conditions: for activity in RAMOS cells: BTK-high; for IC50: Homo sapiens, Ramos, BTK-positive, mean ± SD, n ≥ 6
Procedure: as §1

K562 = test: 3 day MTS cytotoxicity assay, K562; assay type: cell-based; conditions: Homo sapiens; K562, BTK-positive; mean ± SD, n ≥ 6
Procedure: as §1

MRC-5 = test: 3 day MTS cytotoxicity assay, MRC-5; assay type: cell-based; conditions: Homo sapiens, MRC5; MRC-5, non-cancer fibroblasts; mean ± SD, n ≥ 6
Procedure: as §1

BJ = test: 3 day MTS cytotoxicity assay, BJ; assay type: cell-based; conditions: Homo sapiens, non-cancer fibroblasts, mean ± SD, n ≥ 6
Procedure: as §1

Plasma stability = assay type: in vitro ADME; conditions: human plasma, in vitro
Procedure: (§2) Selected compounds were assayed for human plasma and liver microsomal stability in vitro, PAMPA and cellular permeability models of gastrointestinal resorption, and the blood–brain barrier using Caco-2 and MDR1-MCDK cells as previously described.[38] Samples were analyzed in an Agilent RapidFire 300 High-Throughput Mass Spectrometry System (RF-MS; Agilent, Wakefield, MA) with subsequent detection in a Qtrap 5500 mass spectrometer (AB Sciex, Concord, Canada).

[1] = Liver microsomal stability; assay type: in vitro ADME; conditions: human liver microsomes, intrinsic clearance category
Procedure: as §2

Plasma protein binding = assay type: in vitro ADME; conditions: in vitro, read-out: plasma protein binding (% bound) (converted)
[2] = Parallel artificial membrane permeability assay (PAMPA); assay type: in vitro ADME; conditions: passive diffusion
Procedure: as §2

[3] = MDR1-MDCK permeability (blood–brain barrier model); assay type: in vitro ADME; conditions: dog
Procedure: as §2

MDR1-MDCK cells = test: MDR1-MDCK permeability (blood–brain barrier model); assay type: in vitro ADME
Procedure: as §2

MDR1 = test: MDR1-MDCK permeability (blood–brain barrier model); assay type: in vitro ADME; conditions: dog
Procedure: as §2

[4] = Caco-2 permeability (gastrointestinal resorption model); assay type: in vitro ADME; conditions: human, Caco-2
Procedure: as §2

Caco-2 cells = test: as above; assay type: in vitro ADME; conditions: for active efflux: Caco-2; for Caco-2 category: Caco-2 permeability
Procedure: as §2

Lyn phosphorylation = test: Western blot of Lyn phosphorylation in RAMOS cells; assay type: cell-based, human; conditions: 24 h
Procedure: (§3) RAMOS cells were plated at 0.5 × 10^6/mL density in six-well plates. After 24 h, cells were treated with compounds at concentrations of 1, 10, and 50 μM for 24 h. The concentration of the vehicle was 0.5% in the highest test drug concentration (50 μM). LPS stimulation of RAMOS cells followed by drug treatment was performed as described previously.[19] […]
(§4) Primary antibodies used were purchased from Cell Signaling Technology, Inc., Massachusetts, USA, and included BTK (1:1000; Cat. # 3533S), phosphor-BTK (Tyr223) (1:1000; Cat # 5082S), p44/42 MAPK (ERK1/2) (1:1000; Cat # 9102S), phospho-p44/42 MAPK (ERK1/2) (Thr202/Tyr204) (1:1000; Cat # 4376S), p38 MAPK (1:1000; Cat # 9212S), phospho-p38 MAPK (Thr180/Tyr182) (1:1000; Cat # 9211S), Lyn (C13F9) (1:1000: Cat # 2796), phospho-Lyn (Tyr507) (1:1000; Cat #2731), Syk (1:1000; Cat # 2712), phospho-Syk (Tyr525/526) (C87C1) (1:1000; Cat # 2710), and GAPDH (1:4000; Cat. # 2118). […] Band intensities were quantified using NIH ImageJ Software (NIH, Bethesda, Maryland, USA).

pBTK (Tyr223) [5] = test: Western blot of pBTK in LPS-stimulated RAMOS cells; assay type: cell-based, human; conditions: RAMOS cells stimulated with LPS 10 min, then 50 μM for 3 h
Procedure: as §3, §4

p-p38 (Thr180/Tyr182) = test: Western blot of p-p38 in LPS-stimulated RAMOS cells; assay type: cell-based, human; conditions: RAMOS cells stimulated with LPS 10 min, then 50 μM for 3 h
Procedure: as §3, §4

pBTK (Tyr223) [6] = test: Western blot of BTK phosphorylation in RAMOS cells; assay type: cell-based, human
Procedure: as §3, §4

Syk phosphorylation = test: Western blot of Syk phosphorylation in RAMOS cells; assay type: cell-based, human; conditions: 24 h
Procedure: as §3, §4

pERK 1/2 (Thr202/Tyr204) = test: Western blot of pERK1/2 in LPS-stimulated RAMOS cells; assay type: cell-based, human; conditions: RAMOS cells stimulated with LPS 10 min, then 50 μM for 3 h
Procedure: as §3, §4

O=C1Nc2ccc(S(=O)(=O)N3CCN(C(=O)C4CCCCC4)CC3)cc2C1=C1CCCC1 [9b, 5-((4-(Cyclohexanecarbonyl)piperazin-1-yl)sulfonyl)-3-cyclopentylideneindolin-2-one]
IC50 (A549): > 50 µM
IC50 (HCT116): > 50 µM
IC50 (HCT116p53^–/–): > 50 µM
IC50 (U2OS): > 50 µM
IC50 (JURKAT): > 50 µM
IC50 (CCRF-CEM): 35.5 ± 7.05 µM
activity in RAMOS cells (RAMOS): selective cytotoxicity; also recorded: showed activity; also recorded: good anticancer activity in the micromole range
IC50 (RAMOS): 3.04 ± 0.56 µM
IC50 (K562): > 50 µM
IC50 (MRC-5): > 50 µM
IC50 (BJ): > 50 µM
plasma stability (category) (Plasma stability): stable
microsomal stability (clearance) [1]: metabolized quickly by microsomes and high
fraction unbound (Plasma protein binding): 0.114
PAMPA category [2]: low
recovery [3]: 60.2%
MDR1-MDCK CNS (−ive/+ive) (MDR1-MDCK cells): CNS –ive
active efflux (MDR1-MDCK cells): active efflux: yes
Papp (MDR1): 2.92 ×10⁻⁶ cm/s
efflux ratio (MDR1): 9.3
Papp [4]: 3.18 ×10⁻⁶ cm/s
efflux ratio [4]: 2.69
recovery [4]: 45.4%
active efflux (Caco-2 cells): active efflux: yes
Caco-2 category (Caco-2 cells): low permeability and low
Lyn phosphorylation (Lyn phosphorylation): significantly inhibited
pBTK (Tyr223) activation (pBTK (Tyr223) [5]): no significant effect
p-p38 (Thr180/Tyr182) levels (p-p38 (Thr180/Tyr182)): only evidenced on p-p38 (Thr180/Tyr182) levels

O=C1Nc2ccc(S(=O)(=O)N3CCN(C(=O)c4cccc(Br)c4)CC3)cc2C1=C1CCCC1 [9f, 5-((4-(3-Bromobenzoyl)piperazin-1-yl)sulfonyl)-3-cyclopentylideneindolin-2-one]
IC50 (A549): > 50 µM
IC50 (HCT116): > 50 µM
IC50 (HCT116p53^–/–): > 50 µM
IC50 (U2OS): > 50 µM
IC50 (JURKAT): > 50 µM
IC50 (CCRF-CEM): > 50 µM
activity in RAMOS cells (RAMOS): selective cytotoxicity; also recorded: showed activity; also recorded: good anticancer activity in the micromole range
IC50 (RAMOS): 2.06 ± 0.43 µM
IC50 (K562): > 50 µM
IC50 (MRC-5): > 50 µM
IC50 (BJ): > 50 µM
plasma stability (category) (Plasma stability): stable
microsomal stability (clearance) [1]: medium
fraction unbound (Plasma protein binding): 0.043
PAMPA category [2]: low
recovery [3]: 79.2%
MDR1-MDCK CNS (−ive/+ive) (MDR1-MDCK cells): CNS –ive
active efflux (MDR1-MDCK cells): active efflux: yes
Papp (MDR1): 3.2 ×10⁻⁶ cm/s
efflux ratio (MDR1): 6.93
Papp [4]: 10.6 ×10⁻⁶ cm/s
efflux ratio [4]: 3.79
recovery [4]: 74.5%
active efflux (Caco-2 cells): active efflux: yes
Caco-2 category (Caco-2 cells): medium permeability; also recorded: moderate

CCCCC(=O)N1CCN(S(=O)(=O)c2ccc3c(c2)C(=C2CCCC2)C(=O)N3)CC1 [9h, 3-Cyclopentylidene-5-((4-pentanoylpiperazin-1-yl)sulfonyl)indolin-2-one]
IC50 (A549): > 50 µM
IC50 (HCT116): > 50 µM
IC50 (HCT116p53^–/–): > 50 µM
IC50 (U2OS): > 50 µM
IC50 (JURKAT): > 50 µM
IC50 (CCRF-CEM): 46.1 ± 3.13 µM
activity in RAMOS cells (RAMOS): selective cytotoxicity; also recorded: showed activity; also recorded: good anticancer activity in the micromole range
IC50 (RAMOS): 2.75 ± 0.8 µM
IC50 (K562): > 50 µM
IC50 (MRC-5): > 50 µM
IC50 (BJ): > 50 µM
plasma stability (category) (Plasma stability): stable
microsomal stability (clearance) [1]: medium
fraction unbound (Plasma protein binding): 0.0334
PAMPA category [2]: medium
recovery [3]: 86.9%
MDR1-MDCK CNS (−ive/+ive) (MDR1-MDCK cells): CNS –ive
active efflux (MDR1-MDCK cells): active efflux: yes
Papp (MDR1): 5.43 ×10⁻⁶ cm/s
efflux ratio (MDR1): 13.1
Papp [4]: 7.18 ×10⁻⁶ cm/s
efflux ratio [4]: 3.34
recovery [4]: 63.2%
active efflux (Caco-2 cells): active efflux: yes
Caco-2 category (Caco-2 cells): medium permeability; also recorded: moderate
pBTK (Tyr223) levels (pBTK (Tyr223) [6]; 24 h, 50 μM): decrease was significant
pBTK (Tyr223) levels (pBTK (Tyr223) [6]; 24 h, 1, 10, and 50 μM): selective inhibition of pBTK (Tyr223)
Lyn phosphorylation (Lyn phosphorylation): without affecting; also recorded: did not affect
Syk phosphorylation (Syk phosphorylation): without affecting; also recorded: did not affect
pBTK (Tyr223) activation (pBTK (Tyr223) [5]): significantly inhibited
pERK 1/2 (Thr202/Tyr204) levels (pERK 1/2 (Thr202/Tyr204)): decrease
p-p38 (Thr180/Tyr182) levels (p-p38 (Thr180/Tyr182)): decrease
